Assay [1] deals with HPK1 (Homo sapiens, UniProt Q92918). Put plainly: SLP76 phosphorylation assay (intracellular HPK1 inhibitory activity, p-SLP76 Ser376 sandwich ELISA). To be noted: p-SLP76 IC50(nM), Jurkat, Clone E6-1 cells; 1 h compound pre-incubation, anti-CD3 beads stimulation 20 min; SLP76 phosphorylation at S376. (An ELISA detects its analyte on a solid surface through an enzyme-linked reagent.)
Target sequence in this assay (Q92918 whole entry): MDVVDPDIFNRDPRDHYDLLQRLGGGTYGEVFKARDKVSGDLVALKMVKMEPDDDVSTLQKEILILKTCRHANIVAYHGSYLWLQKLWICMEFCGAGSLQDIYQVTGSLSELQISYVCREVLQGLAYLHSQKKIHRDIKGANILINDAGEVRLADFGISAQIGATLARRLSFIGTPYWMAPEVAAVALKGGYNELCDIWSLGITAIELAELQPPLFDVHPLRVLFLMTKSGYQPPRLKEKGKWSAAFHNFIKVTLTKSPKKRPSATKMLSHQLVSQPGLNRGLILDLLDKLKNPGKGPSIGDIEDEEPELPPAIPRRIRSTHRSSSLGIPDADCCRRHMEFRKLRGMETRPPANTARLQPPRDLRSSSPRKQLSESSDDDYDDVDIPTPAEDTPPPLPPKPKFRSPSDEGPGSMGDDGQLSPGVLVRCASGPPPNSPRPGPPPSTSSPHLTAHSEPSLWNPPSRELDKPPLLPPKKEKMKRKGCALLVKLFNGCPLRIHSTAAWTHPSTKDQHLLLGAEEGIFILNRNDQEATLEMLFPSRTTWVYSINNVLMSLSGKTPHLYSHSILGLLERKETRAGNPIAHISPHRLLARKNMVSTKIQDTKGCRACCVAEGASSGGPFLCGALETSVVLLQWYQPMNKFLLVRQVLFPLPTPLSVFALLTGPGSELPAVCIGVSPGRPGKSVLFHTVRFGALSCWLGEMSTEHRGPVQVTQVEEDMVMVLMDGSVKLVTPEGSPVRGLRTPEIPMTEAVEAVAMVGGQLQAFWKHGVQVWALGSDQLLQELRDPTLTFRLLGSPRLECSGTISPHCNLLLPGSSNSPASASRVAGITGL
Method: Intracellular HPK1 inhibitory activity was tested by the detection of SLP76 phosphorylation at S376.
(§1) Preparation of 1000× drug stock plate: a 1000× compound stock plate was prepared. […] The compound stock plate was sealed with a sealing film and stored in a −20° C. refrigerator for later use.
Preparation of Beads wash buffer: 0.1 mL FBS and 0.4 mL 0.5 M EDTA (with a final concentration of 2 mM) were added to 100 mL PBS and stored in a 4° C. refrigerator for later use.
100× Protease Inhibitor Cocktail in 1/20 total volume was added and stored on wet ice for later use. The buffer was ready to use.
Cell inoculation and dosing: the 1000× drug stock plate was taken and melted at room temperature in the dark. […] Jurkat cells in the logarithmic growth phase were selected and collected. […] The cells were inoculated into a 96-well plate (the volume was 90 μL per well), and a blank control well (without cells inoculation, and in which 110 μL of medium was added) was set. 10 μL of a drug-containing culture medium (10×) was transferred from the 10× drug intermediate plate into the 96-well cell plate (with a final concentration of 0.1% DMSO), and set a DMSO control group (in which 0.1% DMSO was added to the treated cells), a stimulated control group (in which 10 μL of culture medium was added to treat cells) and an unstimulated group (in which 10 μL of culture medium was added to treat cells). The wells were duplicated, gently patted, mixed, and then placed into a 5% CO2 incubator at 37° C. for 1 h.
Anti-CD3 beads stimulation: Dynabeads anti-human CD3 was taken, shaken, and mixed for 60 s. The required volume of beads was pipetted, and an equal volume or at least 1 mL of washing solution was added to wash once. Fresh complete medium was then added to resuspend and adjust the density of the beads to 4×10^7/mL, and the beads were placed on ice for later use. At the end of drug pre-incubation, the cell culture plate was taken out. 10 μL Dynabeads anti-human CD3 was added to each well to treat the cells, and 10 μL the culture medium was added to the unstimulated group. The cell culture plate was shaken to mix well at 2500 rpm for 10 s, and then placed into a 5% CO2 incubator at 37° C. and continued to culture for 20 min.
Detection of p-SLP76 protein level. PathScan Phospho-SLP-76 (Ser376) Sandwich ELISA Kit was applied to detect p-SLP76 protein level. At the end of the Anti-CD3 beads stimulation, the cell culture plate was removed from the incubator. […] After lysis, the cell culture plate was centrifuged at 4° C., 400×g for 5 min. 25 μL of sample and 75 μL of sample diluent were added to each well, and the plate was placed in a 5% CO2 incubator at 37° C. for 2 h. The subsequent detection steps were carried out following the kit instructions, and the absorbance (OD value) of each well was read at 450 nm by a microplate reader.

For assay [2], the target named is T1, HPK1 (Homo sapiens, UniProt Q92918).
T1 sequence (Q92918 1-346 limits assumed): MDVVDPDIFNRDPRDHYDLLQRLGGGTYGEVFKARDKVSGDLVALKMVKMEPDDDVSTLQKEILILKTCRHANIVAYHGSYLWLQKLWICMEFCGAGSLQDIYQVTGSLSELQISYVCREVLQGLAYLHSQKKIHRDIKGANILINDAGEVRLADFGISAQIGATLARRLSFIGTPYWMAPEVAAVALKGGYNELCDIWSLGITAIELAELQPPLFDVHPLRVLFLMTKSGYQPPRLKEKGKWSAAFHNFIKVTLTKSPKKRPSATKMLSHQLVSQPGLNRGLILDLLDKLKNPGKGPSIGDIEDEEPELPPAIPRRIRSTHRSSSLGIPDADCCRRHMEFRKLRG
Put plainly: HPK1 kinase activity assay (ADP-Glo). To be noted: HPK1 Kinase activity IC50 (nM), 1 nM HPK1, 10 μM ATP, 0.1 μg/μL MBP. On the technique in general: In ADP-Glo the light output rises with the ADP produced.
Method: Preparation of buffer: 1× reaction buffer (40 mM Tris-HCl, 20 mM MgCl2, 0.01% Brij35, 50 μM DTT, 0.1 mg/ml BSA) was prepared using sterile water, which was prepared and used on the day of the experiment.
as §1
Compound preparation and dosing: the 1000× drug stock plate was taken and melted at room temperature in the dark. Then 5× drug intermediate plate was prepared using reaction buffer and mixed well. 2 μL was transferred from the 5× drug intermediate plate into a 384-well plate, and negative control well and positive control well (in which 2 μL reaction buffer containing 0.5% DMSO was added) were set. Each point was repeated twice.
Preparation and incubation of reaction mixture: HPK1 protein was diluted to a 2.5× working solution with reaction buffer. 4 μL 2.5×HPK1 protein was added to each well containing test compound and positive control well, and 4 μL of reaction buffer without HPK1 protein was added to the negative control well. The obtained mixture was centrifuged at 1000 rpm for 1 min and then incubated in a 20° C. incubator for 15 min. A 2.5× mixed working solution of MBP protein and ATP was prepared with reaction buffer at concentrations of 0.5 μg/μL and 50 PM, respectively. 4 μL of the mixed working solution of MBP and ATP was added to each well, centrifuged at 1000 rpm for 1 min, and then incubated in a 20° C. incubator for 90 min.
ADP-Glo detection and reading plate: 10 μl ADP-Glo was added to each well of the test plate. The resulting mixture was centrifuged at 1000 rpm for 1 min and incubated in a 20° C. incubator for 60 min. Then 10 μL of the final incubation solution was transferred from the test plate to a new 384-well plate. 10 μL of kinase detection reagent was added to each well, centrifuged at 400 g for 1 min, and incubated in a 20° C. incubator for 60 min. Chemiluminescent signals were read by a microplate reader.

Structures are written as SMILES. Where a name gives a salt, the structure may show the parent alone.

`Cc1c[nH]c2ncc(-c3cc4c(c(C5CC(=O)N5)c3)COCC4)cc12` (centres unmarked) [Compound Z231, 4-(6-(3-methyl-1H-pyrrolo[2,3-b]pyridin-5-yl)isochroman-8-yl)azetidin-2-one]: the IC50 is more than 10000 nM in assay [1] and 35.3 nM in assay [2].

As to `Cc1c[nH]c2ncc(-c3cc4c(c(C5CCN5)c3)COCC4)cc12` (centres unmarked) [Compound Z232, 5-(8-(azetidin-2-yl)isochroman-6-yl)-3-methyl-1H-pyrrolo[2,3-b]pyridine], the IC50 came out at 1660 nM in assay [1] and 20.5 nM in assay [2].

Regarding `CN(C)Cc1cc(-c2cnc3[nH]cc(Cl)c3c2)cc2c1COCC2` [Compound Z233, 1-(6-(3-chloro-1H-pyrrolo[2,3-b]pyridin-5-yl)isochroman-8-yl)-N,N-dimethylmethanamine], the results for the 50% inhibitory concentration (IC50) in assay [1] and in assay [2] were 520 nM and 4.01 nM, respectively.

Consider `CC(=O)N1Cc2cc(-c3cnc4[nH]cc(C)c4c3)cc([C@@H]3CCCN3)c2C1` [Compound Z235, (S)-1-(6-(3-methyl-1H-pyrrolo[2,3-b]pyridin-5-yl)-4-(pyrrolidin-2-yl)isoindolin-2-yl)ethan-1-one], for which the IC50 in assay [1] came out at 735 nM; in assay [2], 1.32 nM.

Take `CCN1Cc2c(cc(-c3cnc4[nH]cc(C)c4c3)cc2[C@@H]2CCCN2)C1=O` [Compound Z236, (S)-2-ethyl-6-(3-methyl-1H-pyrrolo[2,3-b]pyridin-5-yl)-4-(pyrrolidin-2-yl)isoindolin-1-one]: the IC50 turned out to be 3810 nM in assay [1] and 29.6 nM in assay [2].

As to `Cc1ccncc1C#Cc1c[nH]c2ncc(-c3cc4c(c([C@@H]5CCCN5)c3)COCC4)cc12` [Compound Z237, (S)-3-((4-methylpyridin-3-yl)ethynyl)-5-(8-(pyrrolidin-2-yl)isochroman-6-yl)-1H-pyrrolo[2,3-b]pyridine], the IC50 in assay [1] was 100 nM; in assay [2], 0.71 nM.

For `Nc1ncc(-c2cc3c(c([C@@H]4CCCN4)c2)COCC3)cc1-c1nccs1` [Compound Z238, (S)-5-(8-(pyrrolidin-2-yl)isochroman-6-yl)-3-(thiazol-2-yl)pyridin-2-amine], the results for the IC50 in assay [1] and in assay [2] were 354 nM and 1.48 nM, respectively.

For `Cc1c[nH]c2ncc(-c3cc4c(c(C5COC(N)=N5)c3)COCC4)cc12` (centres unmarked) [Compound Z243, 4-[6-(3-methyl-1H-pyrrolo[2,3-b]pyridin-5-yl)isochroman-8-yl]-4,5-dihydrooxazol-2-amine], the IC50 in assay [1] was determined as 2510 nM; in assay [2] it was 16.5 nM.

Take `Cc1c[nH]c2ncc(-c3cc4c(c([C@@H]5CCCN5)c3)CN(C(=O)C3(O)CCOCC3)CC4)cc12` [Compound Z244, (S)-(4-hydroxytetrahydro-2H-pyran-4-yl)(6-(3-methyl-11H-pyrrolo[2,3-b]pyridin-5-yl)-8-(pyrrolidin-2-yl)-3,4-dihydroisoquinolin-2(1H)-yl)methanone]: the concentration for half-maximal inhibition (IC50) amounted to 96.6 nM in assay [1] and 0.35 nM in assay [2].

Regarding `COC1(C(=O)N2CCc3cc(-c4cnc5[nH]cc(C)c5c4)cc([C@@H]4CCCN4)c3C2)CC1` [Compound Z245, (S)-(1-methoxycyclopropyl)(6-(3-methyl-1H-pyrrolo[2,3-b]pyridin-5-yl)-8-(pyrrolidin-2-yl)-3,4-dihydroisoquinolin-2(1H)-yl)methanone], the values for the half-inhibitory concentration (IC50) in assay [1] and in assay [2] were 119 nM and 0.45 nM, respectively.

On to `Cc1c[nH]c2ncc(-c3cc4c(c([C@@H]5CCCN5)c3)CN(C(=O)OC3CC3)CC4)cc12` [Compound Z246, (S)-cyclopropyl 6-(3-methyl-1H-pyrrolo[2,3-b]pyridin-5-yl)-8-(pyrrolidin-2-yl)-3,4-dihydroisoquinoline-2(1H)-carboxylate], for which the half-inhibitory concentration (IC50) in assay [1] was determined as 279 nM; in assay [2] it was 0.48 nM.

Regarding `COCc1cc(N2CCc3cc(-c4cnc5[nH]cc(C)c5c4)cc([C@@H]4CCCN4)c3C2)ccn1` [Compound Z247, (S)-2-(2-(methoxymethyl)pyridin-4-yl)-6-(3-methyl-1H-pyrrolo[2,3-b]pyridin-5-yl)-8-(pyrrolidin-2-yl)-1,2,3,4-tetrahydroisoquinoline], the IC50 turned out to be 151 nM in assay [1] and 0.61 nM in assay [2].

As for `Cc1c[nH]c2ncc(-c3cc4c(c([C@@H]5CCCN5)c3)CN(C(=O)NC3CC3)CC4)cc12` [Compound Z250, (S)—N-cyclopropyl-6-(3-methyl-1H-pyrrolo[2,3-b]pyridin-5-yl)-8-(pyrrolidin-2-yl)-3,4-dihydroisoquinoline-2(1H)-carboxamide], the IC50 in assay [1] came out at 193 nM; in assay [2], 0.42 nM.

With `Cc1c[nH]c2ncc(-c3cc4c(c([C@@H]5CCCN5)c3)CN(S(=O)(=O)C3CC3)CC4)cc12` [Compound Z251, (S)-2-(cyclopropylsulfonyl)-6-(3-methyl-1H-pyrrolo[2,3-b]pyridin-5-yl)-8-(pyrrolidin-2-yl)-1,2,3,4-tetrahydroisoquinoline], the half-inhibitory concentration (IC50) stood at 131 nM in assay [1] and 0.49 nM in assay [2].

As to `CCN1Cc2c(cc(-c3cnc4[nH]cc(C)c4c3)cc2[C@@H]2CCCN2)NC1=O` [Compound Z256, (S)-3-ethyl-7-(3-methyl-1H-pyrrolo[2,3-b]pyridin-5-yl)-5-(pyrrolidin-2-yl)-3,4-dihydroquinazolin-2(1H)-one], the 50% inhibitory concentration (IC50) in assay [1] amounted to 279 nM; in assay [2], 0.8 nM.

In the case of `COCC(=O)N1Cc2cc(-c3cnc4[nH]cc(C)c4c3)cc([C@@H]3CCCN3)c2C1` [Compound Z261, (S)-2-methoxy-1-(6-(3-methyl-1H-pyrrolo[2,3-b]pyridin-5-yl)-4-(pyrrolidin-2-yl)isoindolin-2-yl)ethan-1-one hydrochloride], the IC50 in assay [1] stood at 842 nM; in assay [2], 2.63 nM.

Take `Cc1cc(C(=O)N2Cc3cc(-c4cnc5[nH]cc(C)c5c4)cc([C@@H]4CCCN4)c3C2)cc(C)n1` [Compound Z262, (S)-(2,6-dimethylpyridin-4-yl)(6-(3-methyl-1H-pyrrolo[2,3-b]pyridin-5-yl)-4-(pyrrolidin-2-yl)isoindolin-2-yl)methanone hydrochloride]: the IC50 in assay [1] is 627 nM; in assay [2], 1.72 nM.

Consider `Cc1cc(C(=O)N2CCc3c(cc(-c4cnc5[nH]cc(C)c5c4)cc3[C@@H]3CCCN3)C2)cc(C)n1` [Compound Z279, (S)-(2,6-dimethylpyridin-4-yl)(7-(3-methyl-1H-pyrrolo[2,3-b]pyridin-5-yl)-5-(pyrrolidin-2-yl)-3,4-dihydroisoquinolin-2(1H)-yl)methanone], for which the concentration for half-maximal inhibition (IC50) in assay [1] turned out to be 162 nM; in assay [2] it was 0.44 nM.

Consider `Cc1nn(C)cc1C(=O)N1CCc2cc(-c3cnc4[nH]cc(C)c4c3)cc([C@@H]3CCCN3)c2C1` [Compound Z282, (S)-(1,3-dimethyl-1H-pyrazol-4-yl)(6-(3-methyl-1H-pyrrolo[2,3-b]pyridin-5-yl)-8-(pyrrolidin-2-yl)-3,4-dihydroisoquinolin-2(1H)-yl)methanone], for which the IC50 in assay [1] came out at 471 nM; in assay [2], 0.38 nM.

Turning to `Cc1ncncc1C(=O)N1CCc2cc(-c3cnc4[nH]cc(C)c4c3)cc([C@@H]3CCCN3)c2C1` [Compound Z283, (S)-(6-(3-methyl-1H-pyrrolo[2,3-b]pyridin-5-yl)-8-(pyrrolidin-2-yl)-3,4-dihydroisoquinolin-2(1H)-yl) (4-methylpyrimidin-5-yl)methanone], the 50% inhibitory concentration (IC50) in assay [1] amounted to 286 nM; in assay [2], 0.3 nM.

On to `Cc1c[nH]c2ncc(-c3cc4c(c([C@@H]5CCCN5)c3)CCN(C(=O)[C@@](C)(O)C(F)(F)F)C4)cc12` [Compound Z285, (R)-3,3,3-trifluoro-2-hydroxy-2-methyl-1-(7-(3-methyl-1H-pyrrolo[2,3-b]pyridin-5-yl)-5-((S)-pyrrolidin-2-yl)-3,4-dihydroisoquinolin-2(1H)-yl)propan-1-one], for which the IC50 in assay [1] was found to be 323 nM; in assay [2], 0.91 nM.

With `Cc1c[nH]c2ncc(-c3cc4c(c([C@@H]5CCCN5)c3)CCN(C(=O)[C@](C)(O)C(F)(F)F)C4)cc12` [Compound Z285-1, (S)-3,3,3-trifluoro-2-hydroxy-2-methyl-1-(7-(3-methyl-1H-pyrrolo[2,3-b]pyridin-5-yl)-5-((S)-pyrrolidin-2-yl)-3,4-dihydroisoquinolin-2(1H)-yl)propan-1-one], the IC50 worked out at 239 nM in assay [1] and 0.87 nM in assay [2].

For the molecule `Cc1c[nH]c2ncc(-c3cc4c(c([C@@H]5CCCN5)c3)CN(C(=O)[C@H](O)c3ccccc3)CC4)cc12` [Compound Z289, (R)-2-hydroxy-1-(6-(3-methyl-1H-pyrrolo[2,3-b]pyridin-5-yl)-8-((S)-pyrrolidin-2-yl)-3,4-dihydroisoquinolin-2(1H)-yl)-2-acetophenone], the 50% inhibitory concentration (IC50) in assay [1] was found to be 378 nM; in assay [2] it was 1.35 nM.

As to `Cc1c[nH]c2ncc(-c3cc4c(c([C@@H]5CCCN5)c3)CN(C(=O)[C@@H](O)c3ccccc3)CC4)cc12` [Compound Z290, (S)-2-hydroxy-1-(6-(3-methyl-1H-pyrrolo[2,3-b]pyridin-5-yl)-8-((S)-pyrrolidin-2-yl)-3,4-dihydroisoquinolin-2(1H)-yl)-2-acetophenone], the IC50 in assay [1] turned out to be 272 nM; in assay [2], 0.77 nM.

On to `Cc1c[nH]c2ncc(-c3cc4c(c([C@@H]5CCCN5)c3)CN(c3ccncc3)CC4)cc12` [Compound Z291, (S)-6-(3-methyl-1H-pyrrolo[2,3-b]pyridin-5-yl)-2-(pyridin-4-yl)-8-(pyrrolidin-2-yl)-1,2,3,4-tetrahydroisoquinoline], for which the IC50 in assay [1] is 162 nM; in assay [2] it was 0.6 nM.

As usually defined, the IC50 is the point on the concentration scale where inhibition reaches its midpoint.

The values above are taken from US20240182465A1 (GENFLEET THERAPEUTICS (SHANGHAI) INC., priority 2021, published 2024).
